Measured values taken from patent US8957075B2, “O-GlcNAc transferase inhibitors and uses thereof” (priority 2009, dated 2015).
pIC50, pKi: −log10 of the molar value.

Key:
[1] = biological target: T1, sOGT (Homo sapiens (Human), UniProt O15294); assay: Fluorescence polarization screen of quinolinesulfonamide library for OGT inhibition (displacement of fluorescein-linked UDP-GlcNAc analog); format: binding; settings: rough Ki values from fluorescence polarization results and Kd of the probe; 1-2 μM sOGT, 50 nM probe
Experimental: Compound libraries of the 4 concentrations in duplicated were then transferred to the assay plates using a 100 nL pin array, resulting in a final compound concentration of 25 μg/mL or ˜70 μM at the highest of the four concentrations, assuming an average compound MW of 350. Using a Perkin Elmer Envision® microplate reader, the sample was excited at 480 nm in the vertical plane, and simultaneous emission intensity (535 nm) of the vertical and horizontal polarization planes was measured. The polarization was calculated using the following equation: eq4: mP=1000*(V−G*H)/(V+G*H) where: mP=millipolarization units, V=intensity of vertically polarized emission (RFU), H=intensity of horizontally polarized emission (RFU), and G=gain.

[2] = system: HEK293 cells; assay: Glucosamine-induced cellular-wide O-GlcNAcylation changes in HEK cells (western blot, CTD110.6 antibody); format: cell-based; settings: 12.5 μM compound, 4 mM glucosamine, 16 hours
Experimental: The efficacy of the inhibitor in cell culture was evaluated by adding compound N08 to HEK293 cells.HEK293 cells were grown in 6 well plates using low glucose (5 mM) DMEM with 10% FBS as the media. […] After mixing the compounds the media was removed from the cultured cells and the inhibitor-media solutions was added to the cells. After cells were incubated with the inhibitors for 16 hours (overnight), the cells were rinsed with PBS, removed using cell scrapers, transferred to 1.5 ml microcentrifuge tubes, pelleted by centrifugation, and lysed by resuspending in 100 μl RIPA buffer with protease and phosphatase inhibitor cocktails (SIGMA). After incubating on ice the debris were pelleted down, and the supernatant was collected as whole cell lysate. Total protein concentration of each sample was determined by Bradford Assay in order to normalize levels of protein loaded onto a gel. Then 2×SDS-PAGE sample buffer was added to each sample, they were boiled for 10 minutes, and loaded onto a denaturing polyacrylamide gel (4-20% gradient), transferred to nitrocellulose membrane, blocked with 1% BSA for 1 hour, and probed with the monoclonal O-GlcNAc antibody, CTD110.6 (Covance), incubated at a 1:5000 dilution in 1% BSA overnight at 4° C., followed by addition of anti-mouse HRP secondary antibody. Pierce SuperSignal West Pico Chemiluminescent substrate was added to perform the western blot.

[3] = biological target: T1, sOGT; assay: Secondary assay: transfer of UDP-14C-GlcNAc to casein kinase II derived peptide by sOGT; format: biochemical; settings: 500 μM peptide, 6.25 μM UDP-14C-GlcNAc, ~20-40 nM sOGT; read-out: IC50 (OGT inhibition)
Experimental: Hits were examined in a secondary assay involving the transfer of UDP-^14C-GlcNAc to a peptide derived from casein kinase II, which contains a known OGT glycosylation site, as described by Hart and co-workers (see manuscript, reference 4). Three lysines and a tyrosine were added to the N-terminus of this peptide substrate ([sequence]) to allow capture on phosphocellulose discs and UV detection, respectively. […] Reactions were spotted on Whatman P81 phosphocellulose discs, washed three times for five minutes in 1% phosphoric acid, and counted by liquid scintillation counting. IC50s curves were determined from the counts of the reactions and IC50s were determined.

T1 sequence (O15294 382-1046, species assumed): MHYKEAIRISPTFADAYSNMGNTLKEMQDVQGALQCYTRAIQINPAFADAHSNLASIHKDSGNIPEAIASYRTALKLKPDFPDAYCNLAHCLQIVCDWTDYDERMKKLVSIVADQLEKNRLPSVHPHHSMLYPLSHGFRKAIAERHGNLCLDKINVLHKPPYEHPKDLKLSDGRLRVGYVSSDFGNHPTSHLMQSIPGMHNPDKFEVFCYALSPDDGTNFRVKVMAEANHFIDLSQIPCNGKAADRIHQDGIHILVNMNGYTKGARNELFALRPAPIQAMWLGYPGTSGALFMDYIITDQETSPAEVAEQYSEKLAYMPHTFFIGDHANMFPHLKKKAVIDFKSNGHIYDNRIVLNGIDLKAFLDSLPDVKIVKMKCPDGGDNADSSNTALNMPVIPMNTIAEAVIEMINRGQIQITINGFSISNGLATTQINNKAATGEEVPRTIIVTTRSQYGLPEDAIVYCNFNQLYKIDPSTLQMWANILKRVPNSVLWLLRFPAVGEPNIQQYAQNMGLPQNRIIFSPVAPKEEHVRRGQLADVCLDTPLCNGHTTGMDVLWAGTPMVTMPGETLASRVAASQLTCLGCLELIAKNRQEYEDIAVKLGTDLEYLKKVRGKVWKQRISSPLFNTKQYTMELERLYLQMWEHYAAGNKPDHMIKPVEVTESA

SMILES	pKi [1]	also measured
Cc1cccc(N(C)C(=O)C(NS(=O)(=O)c2ccc3c(c2)CCC(=O)N3)c2ccccc2)c1 (stereo not shown)	5.13	–
COc1cccc(N2CCN(C(=O)C(NS(=O)(=O)c3ccc4c(c3)CCC(=O)N4)c3ccccc3)CC2)c1 (stereo not shown)	5.20	–
O=C1CCc2cc(S(=O)(=O)NC(C(=O)NCc3ccc(Cl)cc3)c3ccccc3)ccc2N1 (stereo not shown)	5.18	–
O=C1CCc2cc(S(=O)(=O)NC(C(=O)N3CCC(Cc4ccccc4)CC3)c3ccccc3)ccc2N1 (stereo not shown)	5.70	–
Cc1cccc(C)c1NC(=O)C(NS(=O)(=O)c1ccc2c(c1)CCC(=O)N2)c1ccccc1 (stereo not shown)	4.43	–
O=C1CCc2cc(S(=O)(=O)NC(C(=O)N3CCN(c4ccccn4)CC3)c3ccccc3)ccc2N1 (stereo not shown)	5.38	–
CCc1cccc(C)c1NC(=O)C(NS(=O)(=O)c1ccc2c(c1)CCC(=O)N2)c1ccccc1 (stereo not shown)	4.01	–
O=C1CCc2cc(S(=O)(=O)NC(C(=O)N3CCN(C4CCCCC4)CC3)c3ccccc3)ccc2N1 (stereo not shown)	4.70	–
Cc1ccc(NC(=O)C(NS(=O)(=O)c2ccc3c(c2)CCC(=O)N3)c2ccccc2)c(Br)c1 (stereo not shown)	4.28	–
O=C1CCc2cc(S(=O)(=O)NC(C(=O)N3CCN(C(=O)c4ccco4)CC3)c3ccccc3)ccc2N1 (stereo not shown)	4.96	–
Cc1ccc(N2CCN(C(=O)C(NS(=O)(=O)c3ccc4c(c3)CCC(=O)N4)c3ccccc3)CC2C)cc1 (stereo not shown)	5.49	–
CC(c1cccs1)N(Cc1ccco1)C(=O)C(NS(=O)(=O)c1ccc2c(c1)CCC(=O)N2)c1ccccc1 (stereo not shown)	5.80	–
Cc1cc(C)c(NC(=O)C(NS(=O)(=O)c2ccc3c(c2)CCC(=O)N3)c2ccccc2)c(C)c1 (stereo not shown)	5.25	–
CCN(CC)C(=O)C(NS(=O)(=O)c1ccc2c(c1)CCC(=O)N2)c1ccccc1 (stereo not shown)	4.68	–
O=C(O)CC(NS(=O)(=O)c1ccc2c(c1)CCC(=O)N2)c1cccc(Cl)c1 (stereo not shown)	4.82	–
CN(Cc1ccco1)C(=O)C(Cc1ccccc1)NS(=O)(=O)c1ccc2c(c1)CCC(=O)N2 (stereo not shown)	4.89	–
CCOc1ccccc1NS(=O)(=O)c1ccc2[nH]c(=O)ccc2c1	5.33	–
COc1ccc(NS(=O)(=O)c2ccc3[nH]c(=O)ccc3c2)cc1OC	5.14	–
Cc1ccc(N2CCN(C(=O)C(NS(=O)(=O)c3ccc4c(c3)CCC(=O)N4)c3ccccc3)CC2)cc1 (stereo not shown)	5.05	–
CN(CC(=O)Nc1nc2ccc(Cl)cc2s1)S(=O)(=O)c1ccc2[nH]c(=O)ccc2c1	4.22	–
O=C1CCc2cc(S(=O)(=O)NC(C(=O)NCc3ccccc3)c3ccccc3)ccc2N1 (stereo not shown)	3.90	–
COc1cc2c(cc1OC)C(C)N(S(=O)(=O)c1ccc3[nH]c(=O)ccc3c1)CC2 (stereo not shown)	4.30	–
O=C1CCc2cc(S(=O)(=O)NC(C(=O)N(Cc3ccco3)Cc3cccs3)c3ccccc3)ccc2N1 (stereo not shown)	5.40	–
O=C(C(NS(=O)(=O)c1ccc2[nH]c(=O)ccc2c1)c1ccccc1)N(Cc1ccco1)Cc1cccs1 (stereo not shown) [Example 3, N-(furan-2-ylmethyl)-2-(2-oxo-1,2-dihydroquinoline-6-sulfonamido)-2-phenyl-N-(thiophen-2-ylmethyl)acetamide]	–	Effect on glucosamine-induced cellular-wide O-GlcNAcylation [2]: reduces glucosamine-induced cellular-wide O-GlcNAcylation changes to normal levels; pIC50 [3]: 6.41
CC(C)N(Cc1ccccc1)C(=O)C(NS(=O)(=O)c1ccc2c(c1)CCC(=O)N2)c1ccccc1 (stereo not shown) [drawing 86]	5.24	–
CC(C)N(Cc1ccccc1)C(=O)C(NS(=O)(=O)c1ccc2c(c1)CCC(=O)N2)c1ccccc1 (stereo not shown) [drawing 98]	5.15	–
O=C(C(NS(=O)(=O)c1ccc2[nH]c(=O)ccc2c1)c1ccccc1)N(Cc1ccco1)Cc1cccs1 (stereo not shown) [drawing 100]	6.40	–
